Measurements: patent US6750228B1, “Aromatic sulfone hydroxamic acid metalloprotease inhibitor” (priority 1997, dated 2004)
pIC50: −log10 of the molar value. Like-named read-outs stand apart in the source and are kept apart here.

What was measured:
Assay in all cases: biochemical
[1] = molecular target: T1, MMP-2 (Homo sapiens, UniProt P08253); details: for pIC50: read-out: MMP-2 IC50
T1 construct: made in house; provided by Dr. Gregory Goldberg, Washington University
T1 sequence (P08253 110-660): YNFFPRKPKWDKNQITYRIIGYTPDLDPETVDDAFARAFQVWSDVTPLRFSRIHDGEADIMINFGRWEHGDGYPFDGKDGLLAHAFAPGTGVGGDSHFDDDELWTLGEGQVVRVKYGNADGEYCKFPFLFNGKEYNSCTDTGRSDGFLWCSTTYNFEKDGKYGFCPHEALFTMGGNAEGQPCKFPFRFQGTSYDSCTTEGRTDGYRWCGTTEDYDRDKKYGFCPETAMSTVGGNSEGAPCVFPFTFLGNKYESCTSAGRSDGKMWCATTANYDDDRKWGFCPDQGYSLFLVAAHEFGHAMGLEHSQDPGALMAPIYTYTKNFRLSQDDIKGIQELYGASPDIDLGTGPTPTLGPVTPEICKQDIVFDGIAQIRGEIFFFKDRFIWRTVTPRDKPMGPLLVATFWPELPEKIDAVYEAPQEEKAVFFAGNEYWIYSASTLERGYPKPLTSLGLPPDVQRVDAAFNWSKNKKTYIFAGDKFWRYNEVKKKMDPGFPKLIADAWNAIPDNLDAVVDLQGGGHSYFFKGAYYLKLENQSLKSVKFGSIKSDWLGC
Method in brief: (§1)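 Assay buffer 100 mM Tris-HCl, 100 mM NaCl, 10 mM CaCl2, pH 7.5. Activated MMP + inhibitor, 5 min RT; then methoxycoumarin peptide substrate, 4 μM final. Readout fluorescence; IC50 calculated.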

[2] = molecular target: T2, MMP-1 (Homo sapiens, UniProt P03956); details: read-out: MMP-1 IC50
T2 construct: made in house; host or cells: transfected HT-1080 cells (provided by Dr. Harold Welgus, Washington University)
T2 sequence (P03956 100-469): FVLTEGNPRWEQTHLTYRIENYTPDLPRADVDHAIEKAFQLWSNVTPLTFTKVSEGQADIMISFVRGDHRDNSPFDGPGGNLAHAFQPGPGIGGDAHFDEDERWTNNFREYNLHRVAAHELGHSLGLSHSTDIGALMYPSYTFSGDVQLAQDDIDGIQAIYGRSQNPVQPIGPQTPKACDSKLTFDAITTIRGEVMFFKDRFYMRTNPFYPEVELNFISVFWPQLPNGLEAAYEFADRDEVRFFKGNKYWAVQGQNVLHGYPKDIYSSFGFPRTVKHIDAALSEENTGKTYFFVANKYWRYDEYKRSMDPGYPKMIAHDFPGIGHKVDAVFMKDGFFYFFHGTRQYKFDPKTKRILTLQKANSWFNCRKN
Method in brief: as §1

[3] = molecular target: T3, MMP-13 (Homo sapiens, UniProt P45452); details: for pIC50: read-out: MMP-13 IC50
T3 construct: made in house; host or cells: baculovirus / insect cells
Method in brief: as §1

[4] = recombinant human MMP-2, MCA peptide substrate 4 μM, pH 7.5, room temperature
[5] = recombinant human MMP-1, MCA peptide substrate 4 μM, pH 7.5, room temperature
[6] = recombinant human MMP-13, MCA peptide substrate 4 μM, pH 7.5, room temperature

Row | Structure (SMILES) | pIC50 [1, 4] | pIC50 [2, 5] | pIC50 [3, 6] | pIC50 [1] | pIC50 [2] | pIC50 [3] | IC50 ([3]; MMP-13 IC50 (nM), recombinant human MMP-13, MCA peptide substrate 4 μM, pH 7.5, room temperature) | IC50 ([1]; MMP-2 IC50 (nM))
1 | COc1cccc(NC(=O)N2CCC(C(=O)NO)(S(=O)(=O)c3ccc(Oc4ccc(OC(F)(F)F)cc4)cc3)CC2)c1 [Example 353] | > 10.00 | < 5.00 | 9.52 |  |  |  |  | 
2 | C[C@H]1C[C@H](C)CN(C(=O)C2CCN(c3ccc(S(=O)(=O)C4(C(=O)NO)CCN(C(=O)OC(C)(C)C)CC4)cc3)CC2)C1 (relative stereo) [Example 239, rel-1,1-Dimethylethyl 4-[[4-[4-[[(3R,5R)-3,5-Dimethyl-1-piperidinyl]carbonyl]-1-piperidinyl]-phenyl]sulfonyl]-4-[(hydroxyamino)carbonyl]-1-piperidinecarboxylate] |  |  |  | 5.08 | < 5.00 | 8.05 |  | 
3 | O=C(NO)C1(S(=O)(=O)c2ccc(Oc3cccnc3)cc2)CCSCC1 [Example 149] | 7.86 | 6.32 | 7.80 |  |  |  |  | 
4 | O=C(NO)C1(S(=O)(=O)c2ccc(Oc3ccc(OC(F)(F)F)cc3)cc2)CCN(C2=NCCN2)CC1 [Example 413] | 9.52 | 5.10 | 8.96 |  |  |  |  | 
5 | CO[C@@H]1CCN(c2ccc(S(=O)(=O)C3(C(=O)NO)CCOCC3)cc2)C1 [Example 533] | 6.82 | < 5.00 | 7.22 |  |  |  |  | 
6 | O=C(NO)C1(S(=O)(=O)c2ccc(N3CCC(c4cccc5ccccc45)CC3)cc2)CCOCC1 [Example 540] | 6.30 | < 5.00 |  |  |  |  | 11.4 nM | 
7 | CC1CC(C)CN(C(=O)C2CCN(c3ccc(S(=O)(=O)C4(C(=O)NO)CCN(C(=O)CN5CCN(CCN6CCOCC6)CC5)CC4)cc3)CC2)C1 (stereo not drawn) [Example 306] | < 5.00 | < 5.00 | 7.22 |  |  |  |  | 
8 | O=C(NO)C1(S(=O)(=O)c2ccc(N3CCC(OCc4ccc(COCC(F)(F)C(F)F)cc4)CC3)cc2)CCOCC1 [Example 608] | 6.60 | < 5.00 | 8.52 |  |  |  |  | 
9 | O=C(NO)C1(S(=O)(=O)c2ccc(N3CCC(OCc4ccc(F)c(F)c4)CC3)cc2)CCOCC1 [Example 179] | 6.77 | < 5.00 | 7.69 |  |  |  |  | 
10 | CC1CN(c2ccc(S(=O)(=O)C3(C(=O)NO)CCOCC3)cc2)CCC1OCc1ccc(C(F)(F)F)cc1 (stereo not drawn) [Example 583] | 5.33 | < 5.00 | 7.15 |  |  |  |  | 
11 | CC1CC(C)CN(C(=O)C2CCN(c3ccc(S(=O)(=O)C4(C(=O)NO)CCOCC4)cc3)CC2)C1 (stereo not drawn) [Example 54] | 5.24 | < 5.00 | 7.40 |  |  |  |  | 
12 | O=C(Nc1cccc(OC(F)(F)F)c1)C1CCN(c2ccc(S(=O)(=O)C3(C(=O)NO)CCOCC3)cc2)CC1 [Example 68] | 5.74 | < 5.00 | 7.89 |  |  |  |  | 
13 | CC1CC(C)CN(C(=O)C2CCN(c3ccc(S(=O)(=O)C4(C(=O)NO)CCN(C(=O)CNCC5CC5)CC4)cc3)CC2)C1 (stereo not drawn) [Example 293] | < 5.00 | < 5.00 | 7.20 |  |  |  |  | 
14 | CCOC(=O)CN1CCN(c2ccc(S(=O)(=O)C3(C(=O)NO)CCOCC3)cc2)CC1 [Example 621] | 5.82 | < 5.00 | 6.92 |  |  |  |  | 
15 | O=C(NO)C1(S(=O)(=O)c2ccc(N3CCC(c4ccccc4O)CC3)cc2)CCOCC1 [Example 825] |  |  | 7.95 |  | < 5.00 |  |  | 70 nM
16 | C#CCN1CCC(C(=O)NO)(S(=O)(=O)c2ccc(S(=O)(=O)c3ccccc3)cc2)CC1 [Example 457] | 5.57 | < 5.00 | 5.74 |  |  |  |  | 
17 | O=C(NO)C1(S(=O)(=O)c2ccc(Oc3ccncc3)cc2)CCSCC1 [Example 151] | 6.54 | < 5.00 | 6.57 |  |  |  |  | 
